Patent publication US20230142026A1, “COMPOSITION FOR ENHANCING DROUGHT AND OSMOTIC STRESS RESISTANCE, AND THEIR USES” (REPUBLIC OF KOREA (MANAGEMENT : RURAL DEVELOPMENT …, priority 2019, published 2023)

Key:
[1] = tested on: pABRE-DRE::fLUC with OsPP2C51 or OsPP2C68; experiment: pABRE-DRE::fLUC reporter in rice protoplasts co-expressing OsPP2C51 or OsPP2C68 (ABA signaling inhibitors); type: cell-based
From the text: In addition, in order to investigate the signal transduction process activated by the S17 compound, the dephosphorylation enzyme, OsPP2C51 or OsPP2C68 gene, which inhibits ABA signaling, and reporter transporters (pABRE-DRE::fLUC, pUbi10::rLUC) were simultaneously transiently expressed in rice protoplasts and then treated with ABA and the S17 compound to identify the expression of the reporter.

[2] = tested on: rice; experiment: Water loss rate of cut third leaves of compound-treated rice; type: in vivo; conditions: one day
Method: (§1) In addition, the third leaves of rice of the experimental and control groups treated with ABA (5 μM) and S17 (various concentrations, 10 and 20 μM), respectively, for one day were cut, and the water loss rate was compared therebetween. […] The amount of water in a 50-ml tube that was used for 2 days by three Dongjin rice plants which had been grown for 14 days in a nutrient solution was measured. The control group used 19.9 g of water on average for 2 days, the group treated with ABA (5 μM) used 8.7 g of water, and the groups treated with 10 μM S17 and 20 μM S17 used 14.7 g and 12.5 g of water, respectively (FIG. 2E).

[3] = tested on: Dongjin rice plants; experiment: Water consumption of compound-treated rice plants in 50-ml tube; type: in vivo; conditions: three 14-day plants, control 19.9 g
Method: as §1

[4] = tested on: rice; experiment: Drought resistance (drying experiment) of S17-treated rice; type: in vivo
Method: An experimental group, in which rice grown in a nutrient solution for 14 days was treated with S17, was compared with an untreated control group to determine whether or not S17 induces drought resistance. 3 days after treatment with S17, the nutrient solution fed to the experimental and control plants was removed to induce drought stress. The plants were allowed to be dried (for 12 to 24 hours) and water was fed again to the control and experimental groups, and the rate of the surviving plants was measured (FIGS. 2A and 2B). […] The dry weight of the experimental group was measured. […] This is considered to be due to the effect of inhibiting growth occurring during the treatment with S17.

[5] = tested on: pABRE-DRE::fLUC; experiment: Induction of environmental stress response: pABRE-DRE::fLUC reporter in rice protoplasts; type: cell-based; conditions: 15 hours after treatment
Method: Rice protoplasts were transiently transformed with a pABRE-DRE::fLUC transporter, which induces the expression of the reporter gene, luciferase, in response to the plant environmental stress resistance hormone ABA (abscisic acid), and were then treated with 90 kinds of compounds having a structure similar to ABA received from the Korea Chemical Bank, and a compound that enhances the expression of the reporter was selected from the compounds and referred to as “S17”.
In order to verify the effect of inducing response to environmental stress of the S17 compound compared with ABA, pABRE-DRE::fLUC and the transformation marker pUbi10::rLUC transporter were transiently expressed in rice protoplasts, and then treated with ABA and the S17 compound. After 15 hours, the degree of expression of fLUC was detected.

[6] = tested on: rice; experiment: Osmotic stress resistance of S17-treated rice using mannitol; type: in vivo
Method: Thus, the effects of S17 on osmotic stress were detected. Osmotic stress was induced using mannitol in 14-day-old rice after treatment with S17. The experimental group treated with 5 μM and 10 μM of S17 and the untreated control group were treated with 0 mM, 100 mM, and 200 mM of mannitol, and the growth of these plants was observed (FIG. 3A).
In addition, in order to determine the osmotic stress resistance and growth-enhancing effect, osmotic stress was induced using mannitol in 14-day-old rice treated with S17. The experimental group treated with 5 μM and 10 μM of S17 and the untreated control group were treated with 0 mM, 100 mM, and 200 mM of mannitol, and then the water consumption of these plants and the dry weight after the experiment were measured (FIG. 3). […] As the concentration of mannitol increased, the amount of water used in plants decreased due to osmotic pressure stress.

CC1=CC(=O)CC(C)(C)[C@@]1(O)/C=C/C(C)=C\C(=O)O [ABA, abscisic acid, reference compound]
expression of fLUC with OsPP2C51 or OsPP2C68 [1]: inhibited
water loss rate ([2]; ABA 5 μM): decreased water loss rate
amount of water used for 2 days ([3]; 5 μM): 8.7 g

O=C(O)/C=C/c1ccsc1 [S17]
expression of fLUC with OsPP2C51 or OsPP2C68 [1]: induced
water loss rate ([2]; S17 10 and 20 μM): decreased water loss rate
average survival rate ([4]; 14-day rice, 3 days after S17 treatment, dried 12 to 24 hours, water fed again, control 16.6%): 76.7%
dry weight relative to average weight of control group ([4]; after drying experiment): 91.5%
degree of expression of fLUC [5]: significantly expressed
water consumption rate compared to the control group ([6]; 5 μM S17, 0 mM mannitol): 97.5%
amount of water used vs control not treated with S17 ([6]; 5 μM S17, 100 mM mannitol): 120%
dry weight compared to the group treated with 0 μM of S17 ([6]; 5 μM S17, 100 mM mannitol): 101%
amount of water used vs control not treated with S17 ([6]; 5 μM S17, 200 mM mannitol): 119%
dry weight compared to the group treated with 0 μM of S17 ([6]; 5 μM S17, 200 mM mannitol): 106%
dry weight compared to the group treated with 0 μM of S17 ([6]; 5 μM S17, no mannitol): 97%
leaf curling caused by osmotic stress ([6]; 5 μM and 10 μM S17, 0, 100, 200 mM mannitol): significantly reduced
water consumption rate compared to the control group ([6]; 10 μM S17, 0 mM mannitol): 78%
amount of water used vs control not treated with S17 ([6]; 10 μM S17, 100 mM mannitol): 106%
dry weight compared to the group treated with 0 μM of S17 ([6]; 10 μM S17, 100 mM mannitol): 104%
amount of water used vs control not treated with S17 ([6]; 10 μM S17, 200 mM mannitol): 128%
dry weight compared to the group treated with 0 μM of S17 ([6]; 10 μM S17, 200 mM mannitol): 112%
dry weight compared to the group treated with 0 μM of S17 ([6]; 10 μM S17, no mannitol): 82%
amount of water used for 2 days ([3]; 10 μM): 14.7 g
amount of water used for 2 days ([3]; 20 μM): 12.5 g
